From patent US11034653B2, “Crystal form of estrogen receptor inhibitor and preparation method therefor” (LUOXIN PHARMACEUTICAL (SHANGHAI) CO., LTD., priority 2017, dated 2021)
Each block holds one compound with its values, some of them ahead of it.

Experiments:
[1] = Hygroscopicity study by dynamic vapor sorption (DVS); type: physicochemical; settings: 25° C./80% RH
Protocol: Dynamic Vapor Sorption (DVS)
Instrument model: SMS DVS Advantage dynamic vapor sorption analyzer
Test conditions: samples (10-15 mg) were disposed in the DVS sample tray for testing.
The detailed DVS parameters were as follows:
Balance: dm/dt=0.01%/min (shortest: 10 min, longest: 180 min)
Drying: drying for 120 min at 0% RH
RH (%) test step range: 0%-90%-0%
The hygroscopicity evaluation is classified as follows:
SMS DVS Advantage dynamic vapor sorption analyzer

[2] = Long-term crystal form stability test under high temperature and high humidity conditions (XRPD); type: physicochemical; settings: 40° C., 75% RH, 10th day and 31th day
[3] = Solid stability test under high humidity and light irradiation conditions (XRPD, HPLC); type: physicochemical
Protocol: High Performance Liquid Chromatograph (HPLC)
The bottles containing samples placed under high humidity condition were sealed with aluminum foil. Small holes were made in the aluminum foil to ensure that the samples can fully contact with the ambient air. The samples were tested on the 10th day. The bottles containing samples placed under light condition were left open and the samples were exposed to a light source, and tested after being irradiated enough energy. The test results were compared with the initial test results on day 0.

breast cancer patients = settings: intramuscular injection; cited from earlier work
[4] = cited from earlier work

Hygroscopicity classification [1]: almost non-hygroscopic
ΔW, weight increase caused by hygroscopy ([1]; DVS): 0.1687%
Crystal form stability (conclusion) [2]: stable
Crystal form (XRPD) ([3]; 0 day): Crystal form A
Purity (%) ([3]; 0 day): 96.99%
Related substance at relative retention time 0.97 (HPLC) ([3]; 0 day): 0.21
Related substance at relative retention time 1.02 (HPLC) ([3]; 0 day): 0.36
Related substance at relative retention time 1.05 (HPLC) ([3]; 0 day): 0.30
Total content of related substances (%) ([3]; 0 day): 0.87%
Crystal form (XRPD) ([3]; High humidity (room temperature/relative humidity 92.5%, exposed), 10th day): Crystal form A
Related substance at relative retention time 0.97 (HPLC) ([3]; High humidity, 10 days): 0.22
Related substance at relative retention time 1.02 (HPLC) ([3]; High humidity, 10 days): 0.23
Related substance at relative retention time 1.05 (HPLC) ([3]; High humidity, 10 days): 0.31
Total content of related substances (%) ([3]; High humidity, 10 days): 0.77%
Purity (%) ([3]; Light irradiation): 101.09%
Related substance at relative retention time 0.88 (HPLC) ([3]; Light irradiation): 0.05
Related substance at relative retention time 0.97 (HPLC) ([3]; Light irradiation): 0.22
Related substance at relative retention time 0.98 (HPLC) ([3]; Light irradiation): 0.17
Related substance at relative retention time 1.02 (HPLC) ([3]; Light irradiation): 0.23
Related substance at relative retention time 1.04 (HPLC) ([3]; Light irradiation): 0.13
Related substance at relative retention time 1.05 (HPLC) ([3]; Light irradiation): 0.17
Total content of related substances (%) ([3]; Light irradiation): 0.98%
Crystal form (XRPD) ([3]; Light irradiation (1ICH, exposed)): Crystal form A
Solid stability (conclusion) ([3]; high humidity and light irradiation condition): stable
SMILES: CC/C(=C(/c1ccc(/C=C/C(=O)O)cc1)c1[nH]c2ccccc2c1Cl)c1ccc(F)cc1Cl

SMILES: C[C@]12CC[C@@H]3c4ccc(O)cc4C[C@@H](CCCCCCCCC[S+]([O-])CCCC(F)(F)C(F)(F)F)[C@H]3[C@@H]1CC[C@@H]2O (some centres unmarked) [fulvestrant]
breast cancer patients who have shown a clinical response (breast cancer patients): about 50%
oral bioavailability [4]: zero
